Measurements reported in patent US10519423B1, “High efficiency reprogramming of fibroblasts into cardiomyocytes” (The Regents of the University of Colorado, a body corporate, priority 2015, dated 2019).

Experiments:
Format in all cases: cell-based, mouse
MEFs [1] = assay: Counting of spontaneously beating cells in infected MEFs
Procedure: (§1) Fibroblasts were plated on tissue culture dishes pre-coated with SureCoat (Cellutron) at a density of ˜40 cells/mm^2 before transduction. The fibroblast growth medium was replaced with freshly made viral mixture containing polybrene (Sigma). Twenty-four hours later, fibroblasts were infected again with viral mixture containing polybrene. Twenty fours later, the viral medium was replaced with induction medium, composed of DMEM/199 (4:1) (Gibco), 10% FBS (Gemini), 5% horse serum(Gemini), antibiotics (Gibco), 1× non-essential amino acids (Gibco), 1× essential amino acids (Gibco), 1× B-27 (Gibco), 1× insulin-selenium-transferin (Gibco), 1× vitamin mixture (Gibco), and 1× sodium pyruvate (Gibco). Medium was changed every two-three days until cells were examined.
(§2) Cells in 60 mm dishes were examined under an EVOS® FL Color imaging system (Life Technologies) at 25° C. Beating cells were counted at a field with an area of 0.89 mm^2. Ten to fifteen fields in each dish were randomly chosen.

TTFs = assay: qPCR of cardiac genes in tail-tip fibroblasts; conditions: GHMT2m-TTFs treated with A83-01 for 4 weeks
Procedure: (§3) Hearts or skinned tails from adult C57BL6 mice were cut into small pieces with ˜1 mm diameter. The biopsies were seeded on a 10 cm culture dish and incubated with 10 mL of growth medium (DMEM/Hi glucose (Hyclone), 10% FBS (Gemini:), 1.1% Penicillin-Streptomycin (Gibco) and 1.1% GlutaMAX supplement (Gibco)) at 37° C. with 5% CO2. TTFs migrated out of the biopsies after 3 days. The media were changed every other day. Once the TTFs have reached a 70-80% confluence, the cells were harvested and stored for future use.
(§4) Cells were harvested in TRizol reagent (Ambion) for RNA isolation. RNA was extracted with the RNeasy® Plus Universal Mini Kit (Qiagen). RT-PCR was performed using the Superscript III first-strand synthesis system (Invitrogen). qPCR was performed using the SYBR® Green PCR master mix (Applied Biosystems) or StepOne™ Real-Time PCR Systems (Applied Biosystems). Primers are listed in Supplementary Table 1. Ryr2 (Mm00465877_m1) and Myh7 (Mm01319006_91) are Taqman probes (Life technologies).

MEFs [2] = assay: Pro-fibrotic marker expression in infected MEFs (qPCR, Western blot, αSMA stress fiber immunostaining); conditions: A83-01 0.5 μM, day 7
Procedure: as §4
Samples were placed on ice and washed with ice-cold DPBS (Gibco) twice, then ice-cold lysis buffer (150 mM NaCl, 50 mM Tris-Cl pH7.4, 1 mM EDTA, 1% Triton, Complete mini tablet (Roche), 1 mM PMSF freshly added before use) was added to the cells. Cells were scraped and transferred to a pre-chilled 1.5 Eppendorf tube and frozen in liquid N2. Before used, the lysate was thawed on ice. The lysate was passed carefully through a 25 g needle for 5 times and then centrifuge at 14,000 rpm for 15 minutes at 4° C. The supernatant was transferred to a new 1.5 ml tube. The protein concentration was measured and 20 ug of lysate for each sample was loaded to SDSPAGE. Proteins were then transferred to PVDF. The PDVF membrane was blocked in 2.5% BSA in 1×TBST for 30 mins at room temperature (RT). The primary antibody was added in blocking buffer for 60 mins at RT. Wash in 1×TBST (20 mM Tris-Cl, pH7.4; 150 mM NaCl; 0.1% Tween20) three times at RT, each for 15 mins. The Secondary antibody was added in blocking buffer for 45 mins at RT. The membrane was washed in 1 XTBST for 15 mins, 1×TBST for 5 mins, then TBS (10 mM Tris-Cl pH8, 150 mM NaCl) for 5 mins. The membrane was resolved with Super Signal® West Pico (34080) or Femto (34095) substrate (Thermo Scientfic). The primary antibodies include: Snail (Cell Signaling, 3879S, 1:1000), Slug (Cell Signaling, 9585S, 1:1000), P-Smad2 (Cell Signaling, 23108P, 1:1000), Smad2 (Cell Signaling, 5339, 1:1000), αSMA (Santa Cruz, SC-32251, 1:10000), cTn1 (Phospho Solutions, 2010-TNI, 1:1000), cTnT (Sigma, T6277, 1:1000), and GAPDH (Ambion, AM4300). The secondary antibodies include: Goat Anti-Mouse IgG (H+L) (Southern Biotech, 1031-05, 1:2000). Goat Anti-Rabbit IgG (Life Technologies, 65-6120, 1:2000). For separation of α- and β-myosin heavy chain, samples were run by modified 6% SDS-PAGE (separating acrylamide/bis ratio 1:100; resolving gel buffer pH 9.0; running gel buffer pH 8.2; β-mercaptoethanol 600 μl/l inner gel buffer). Gels were run overnight at 4° C. and stained with BioSafe Coomassie Blue protein stain.
Cells were fixed in 2% PFA for 15 min on ice then washed with DPBS (Gibco) three times at RT. The cells were permeabilized in 0.5% Triton X-100 (made in PBS) for 20 min at RT. After washing the cells with DPBS (Gibco), cells were incubated with the primary antibody against α-actinin (Sigma A7811, 1:300), Connexin 43 (Sigma, C6219, 1:500), Troponin T (Thermo Scientific MS-245-P, 1:500), α-SMA (Santa Cruz Biotechnology, SC-32251, 1:800), Myl2 (Proteintech, 10906-1-AP, 1:200), or Myl7 (Proteintech, 17283-1-AP, 1:200) in 10% FBS(Gemini) in DPBS for 1 hour at RT. Cells were wash with DPBS three times, 5 min each. Cell were incubated with the secondary antibody (Alexa Fluor 555 Molecular Probes A21422, 1:1000) and Hoechest (Molecular Probes 33342, 1:5000) for 30 mins at RT.

MEFs [3] = assay: qPCR of cardiac genes in reprogramming MEFs; conditions: reprogramming MEFs treated with A83-01 for 5 days, day 7
Procedure: as §4

[4] = system: adult tail-tip fibroblasts (ATTFs); assay: Counting of spontaneously beating cells in adult tail-tip fibroblasts; conditions: GHMT2m-ATTFs treated with A83-01 (0.5 μM)
Procedure: as §3, §1, §2

[5] = system: adult cardiac fibroblasts (ACFs); assay: Immunocytochemistry for cTnT and α-actinin in adult cardiac fibroblasts; conditions: by 4 weeks, without or with A83-01
Procedure: as §3, §1
Cells were fixed in 2% PFA for 15 min on ice then washed with DPBS (Gibco) three times at RT. […]

Cc1cccc(-c2nn(C(=S)Nc3ccccc3)cc2-c2ccnc3ccccc23)n1 [A83-01]
increase of the number of beating cells (MEFs [1]; GHMT2m-infected MEFs treated with A83-01, by day 8): 8 fold | spontaneously contracting cells per cm^2 (MEFs [1]; GHMT-infected MEFs treated with A83-01 (0.5 μM), by 4 weeks): about 4400 cells per cm^2 | time by which cells started to beat (MEFs [1]; MEFs, GHMT2m alone, or GHMT-infected cultures treated with Y-27632 (30 μM) or A83-01 (0.5 μM)): ≤ 11 days | cardiomyocyte gene expression (TTFs): Enhanced | expression of Fn-EDA, Col1a1 and Col3a1, and formation of αSMA+ stress fibers (MEFs [2]; GHMT- and GHMT2m-infected cultures): inhibited | phosphorylation of Smad2 (MEFs [2]; MEFs): decreased | program of cardiomyocyte gene expression (MEFs [3]): enhanced | time by which spontaneously beating cells appeared [4]: 2-3 weeks | spontaneously contracting cells ([4]; by 4 weeks): about 4% | spontaneously contracting cells per cm^2 ([4]; by 4 weeks): approximately 300 cells per cm^2 | ACFs positive for cTnT ([5]; GHMT2m-infected ACFs): approximately 18% | ACFs positive for cTnT ([5]; GHMT-infected ACFs): approximately 10%
